Data from paper PMC9238401, “Peptide Conjugates Derived from flg15, Pep13, and PIP1 That Are Active against Plant-Pathogenic Bacteria and Trigger Plant Defense Responses” (Applied and Environmental Microbiology, 2022).
Non-standard residues stand in square brackets, D forms with d. Residues, ends and D or L forms follow the SMILES beside them. No end group written: not given here. *: point of attachment. Butyryl = CCCC(=O)*

Assays:
horse erythrocytes = conditions: TRIS buffer pH 7.2, 1 h, 37°C, absorbance 540 nm, relative to melittin 100 μM, ± confidence interval (α = 0.05)
Procedure: The toxicity of peptide conjugates to eukaryotic cells was determined as the ability to lyse erythrocytes (Table SB).
The hemolytic activity of the compounds was evaluated by determining hemoglobin release from erythrocyte suspensions of horse blood (5% vol/vol) (Oxoid) as previously described ([45]). Blood was centrifuged at 6000g for 5 min, washed three times with TRIS buffer (10 mM TRIS, 150 mM NaCl, pH 7.2) and diluted 10 times. Compounds were solubilized in TRIS buffer at 750, 500, 300, and 100 μM and mixed with horse erythrocytes (1:1 vol/vol). The mixture was incubated with continuous shaking for 1 h at 37°C. Then, the tubes were centrifuged at 3500g for 10 min, 80-μL aliquots of the supernatant were transferred to 100-well microplates (Bioscreen) and diluted with 80 μL water, and the absorbance measured at 540 nm (Bioscreen). […] The percentage of hemolysis (H) was calculated using the equation H = 100 × ([Op − Ob]/[Om − Ob]), where Op is the density for a given compound concentration, Ob is that for the buffer, and Om is that for the melittin positive control.

tobacco leaves = experiment: Effect of peptide infiltration on tobacco leaves (phytotoxicity); assay type: in vivo; conditions: 100 μL infiltrated into mesophyll, lesion diameter 48 h after infiltration, at least three leaves; ± confidence interval (α = 0.05)
Procedure: Peptide conjugates were also assayed for their toxicity in tobacco leaves (Fig. 3, Table SC). After 48 h of infiltration, melittin caused a necrotic area of 0.70 and 2.17 cm in diameter at 50 and 250 μM, respectively. The monomers were not phytotoxic at those concentrations; all of them led to lesions of ≤1.2 cm at 250 μM. All peptide conjugates were also less phytotoxic than melittin, causing necrotic lesions between 0.26 and 1.67 cm in diameter at 250 μM. In particular, 15 of the 30 conjugates led to a necrotic area of <1 cm at this concentration. In general, sequences incorporating BP13 were among the most phytotoxic.
Peptide conjugates were evaluated for their effect on infiltration on tobacco leaves as described previously ([41]). Peptide solutions of 50, 150, and 250 μM were infiltrated (100 μL) into the mesophylls of fully expanded tobacco leaves. Infiltrations were carried out in a single leaf, and for each peptide and dose, at least three leaves randomly distributed in different plants were inoculated. Control infiltrations with water (negative control) or melittin (positive control) at the same molar concentration were performed. The appearance of symptoms on the leaves was followed for 48 h after infiltration and measured as lesion diameter.

[1] = system: Pseudomonas syringae pv. syringae EPS94; experiment: In vitro growth inhibition (MIC); assay type: cell-based; conditions: TSB, 25°C, 48 h, OD 600 nm (Bioscreen C), three replicates, experiment repeated twice; MIC given as range
Procedure: (§1) Peptide conjugates were tested for in vitro growth inhibition of the plant-pathogenic bacteria E. amylovora PMV6076, Xanthomonas arboricola pv. pruni CFBP5563, X. fragariae Xf349-9A, X. axonopodis pv. vesicatoria 2133-2, P. syringae pv. actinidiae Psa3700.1.1, and P. syringae pv. syringae EPS94 (Fig. 1, Table SA). The corresponding monomers (flg15, BP13, Pep13, PIP1, BP16, BP100, BP143, BP387, BP475, and KSL-W) were included for comparison.
(§2) The following plant-pathogenic bacterial strains were used: Erwinia amylovora PMV6076 (Institut National de la Recherche Agronomique, Angers, France), Pseudomonas syringae pv. syringae EPS94 (Institut de Tecnologia Agroalimentària, University of Girona, Spain), Xanthomonas axonopodis pv. vesicatoria 2133-2, X. axonopodis pv. vesicatoria Xav206 (Xav) (D. F. Ritchie, Department of Plant Pathology, North Carolina State University), Pseudomonas syringae pv. actinidiae Psa3700.1.1, Xanthomonas fragariae Xf349-9A (Instituto Valenciano de Investigaciones Agrarias, Valencia, Spain), and Xanthomonas arboricola pv. pruni CFBP5563 (Collection Française de Bactéries Associées aux Plantes, Angers, France). All bacteria except for X. fragariae were stored in Luria Bertani (LB) broth supplemented with glycerol (20%) and maintained at −80°C. For X. fragariae, medium B ([80]) was used instead of LB. E. amylovora, X. arboricola pv. pruni, P. syringae pv. syringae, and P. syringae pv. actinidiae were scraped from the agar medium after growing for 24 h at 25°C, and X. axonopodis pv. vesicatoria and X. fragariae, after growing for 48 h at 25°C. The cell material was suspended in sterile water to obtain a suspension of 10^8 CFU mL^−1.
(§3) Lyophilized peptides were solubilized in sterile Milli-Q water to a final concentration of 1 mM and filter-sterilized through a 0.22-μm pore filter. […] Then, 20 μL of each dilution were mixed in a microtiter plate well with 20 μL of the corresponding suspension of the bacterial indicator, 160 μL of Trypticase soy broth (TSB) (bioMérieux, France) to a total volume of 200 μL. Three replicates for each combination of strain, compound, and concentration were used. Microbial growth was determined by optical density measurement at 600 nm (Bioscreen C; Labsystem, Helsinki, Finland). Microplates were incubated at 25°C with 20 s of shaking before hourly absorbance measurement for 48 h. The experiment was repeated twice. The MIC was taken as the lowest compound concentration with no growth at the end of the experiment.

[2] = system: Xanthomonas arboricola pv. pruni CFBP5563; experiment: In vitro growth inhibition (MIC); assay type: cell-based; conditions: TSB, 25°C, 48 h, OD 600 nm (Bioscreen C), three replicates, experiment repeated twice; MIC given as range
Procedure: as §1, §2, §3

[3] = system: Xanthomonas fragariae Xf349-9A; experiment: In vitro growth inhibition (MIC); assay type: cell-based; conditions: TSB, 25°C, 48 h, OD 600 nm (Bioscreen C), three replicates, experiment repeated twice; MIC given as range
Procedure: as §1, §2, §3

[4] = system: Pseudomonas syringae pv. actinidiae Psa3700.1.1; experiment: In vitro growth inhibition (MIC); assay type: cell-based; conditions: TSB, 25°C, 48 h, OD 600 nm (Bioscreen C), three replicates, experiment repeated twice; MIC given as range
Procedure: as §1, §2, §3

[5] = system: Erwinia amylovora PMV6076; experiment: In vitro growth inhibition (MIC); assay type: cell-based; conditions: TSB, 25°C, 48 h, OD 600 nm (Bioscreen C), three replicates, experiment repeated twice; MIC = lowest concentration with no growth, given as range
Procedure: as §1, §2, §3

[6] = system: Xanthomonas axonopodis pv. vesicatoria 2133-2; conditions: TSB, 25°C, 48 h, OD 600 nm (Bioscreen C), three replicates, experiment repeated twice; MIC given as range
Text: The corresponding monomers (flg15, BP13, Pep13, PIP1, BP16, BP100, BP143, BP387, BP475, and KSL-W) were included for comparison.
as §2, §3

## CCCC(=O)NCCCC[C@H](NC(=O)[C@@H](NC(=O)[C@H](CCCCN)NC(=O)[C@H](CCCCN)NC(=O)[C@H](Cc1ccccc1)NC(=O)[C@H](CC(C)C)NC(=O)[C@H](CCCCN)NC(=O)[C@H](CCCCN)NC(C)=O)[C@@H](C)CC)C(=O)N[C@@H](CCCCN)C(=O)N[C@@H](Cc1ccc(O)cc1)C(=O)N[C@@H](CC(C)C)C(N)=O [BP387, reference compound] (Ac-KKLFKKIK(Butyryl)KYL-NH2)
Horse erythrocytes
  Percent hemolysis at 50 μM: 4 ± 0.9%
  Percent hemolysis at 150 μM: 11 ± 5%
  Percent hemolysis at 250 μM: 14 ± 0.5%
  Percent hemolysis at 375 μM: 18 ± 1%
Tobacco leaves
  Size of the lesions in infiltrated tobacco leaves at 50 μM: 0.32 ± 0.07 cm
  Size of the lesions in infiltrated tobacco leaves at 150 μM: 0.84 ± 0.10 cm
  Size of the lesions in infiltrated tobacco leaves at 250 μM: 0.92 ± 0.01 cm
[1]
  MIC, Pss: 3.1 to 6.2 µM
[2]
  MIC, Xap: 3.1 to 6.2 µM
[3]
  MIC, Xf: 1.6 to 3.1 µM
[4]
  MIC, Psa: 3.1 to 6.2 µM
[5]
  MIC, Ea: 3.1 to 6.2 µM
[6]
  MIC, Xav: 1.6 to 3.1 µM

## CCCC(=O)NCCCC[C@H](NC(=O)[C@H](CCCCN)NC(=O)[C@H](CC(C)C)NC(=O)[C@@H](NC(=O)[C@H](CCCCN)NC(=O)[C@H](CCCCN)NC(=O)[C@@H](Cc1ccccc1)NC(=O)[C@H](CC(C)C)NC(=O)[C@H](CCCCN)NC(=O)[C@H](CCCCN)NC(C)=O)[C@@H](C)CC)C(=O)N[C@@H](CC(C)C)C(N)=O [BP475, reference compound] (Ac-KKL[dF]KKILKK(Butyryl)L-NH2)
Horse erythrocytes
  Percent hemolysis at 50 μM: 0 ± 0%
  Percent hemolysis at 150 μM: 0 ± 0%
  Percent hemolysis at 250 μM: 0 ± 0%
  Percent hemolysis at 375 μM: 0 ± 0%
Tobacco leaves
  Size of the lesions in infiltrated tobacco leaves at 50 μM: 0.50 ± 0.10 cm
  Size of the lesions in infiltrated tobacco leaves at 150 μM: 0.70 ± 0.20 cm
  Size of the lesions in infiltrated tobacco leaves at 250 μM: 1.00 ± 0.10 cm
[1]
  MIC, Pss: 3.1 to 6.2 µM
[2]
  MIC, Xap: 0.8 to 1.6 µM
[3]
  MIC, Xf: 1.6 to 3.1 µM
[4]
  MIC, Psa: 1.6 to 3.1 µM
[5]
  MIC, Ea: 3.1 to 6.2 µM
[6]
  MIC, Xav: 1.6 to 3.1 µM

## CC[C@H](C)[C@H](NC(=O)[C@H](CCCCN)NC(=O)[C@H](CCCCN)NC(=O)[C@H](Cc1ccccc1)NC(=O)[C@H](CC(C)C)NC(=O)[C@H](CCCCN)NC(=O)[C@@H](N)CCCCN)C(=O)N[C@@H](CC(C)C)C(=O)N[C@@H](CCCCN)C(=O)N[C@@H](CCCCN)C(=O)N[C@@H](CC(C)C)C(N)=O [BP16, reference compound]
Horse erythrocytes
  Percent hemolysis at 50 μM: 2 ± 1%
  Percent hemolysis at 150 μM: 1 ± 0.6%
  Percent hemolysis at 250 μM: 1 ± 0.4%
  Percent hemolysis at 375 μM: 3 ± 3%
Tobacco leaves
  Size of the lesions in infiltrated tobacco leaves at 50 μM: 0.08 ± 0.11 cm
  Size of the lesions in infiltrated tobacco leaves at 150 μM: 0.16 ± 0.16 cm
  Size of the lesions in infiltrated tobacco leaves at 250 μM: 0.26 ± 0.08 cm

## CC[C@H](C)[C@H](NC(=O)[C@H](CCCCN)NC(=O)[C@H](CCCCN)NC(=O)[C@H](Cc1ccccc1)NC(=O)[C@H](CC(C)C)NC(=O)[C@H](CCCCN)NC(=O)[C@@H](N)CCCCN)C(=O)N[C@@H](CC(C)C)C(=O)N[C@@H](CCCCN)C(=O)N[C@@H](Cc1ccc(O)cc1)C(=O)N[C@@H](CC(C)C)C(N)=O [BP100, reference compound]
Horse erythrocytes
  Percent hemolysis at 50 μM: 4 ± 0.5%
  Percent hemolysis at 150 μM: 7 ± 2%
  Percent hemolysis at 250 μM: 6 ± 0.3%
  Percent hemolysis at 375 μM: 11 ± 0.9%
Tobacco leaves
  Size of the lesions in infiltrated tobacco leaves at 50 μM: 0.40 ± 0.03 cm
  Size of the lesions in infiltrated tobacco leaves at 250 μM: 1.20 ± 0.16 cm

## CC[C@H](C)[C@H](NC(=O)[C@H](CCCCN)NC(=O)[C@H](CCCCN)NC(=O)[C@@H](Cc1ccccc1)NC(=O)[C@H](CC(C)C)NC(=O)[C@H](CCCCN)NC(=O)[C@@H](N)CCCCN)C(=O)N[C@@H](CC(C)C)C(=O)N[C@@H](CCCCN)C(=O)N[C@@H](Cc1ccc(O)cc1)C(=O)N[C@@H](CC(C)C)C(N)=O [BP143, reference compound]
Horse erythrocytes
  Percent hemolysis at 50 μM: 3 ± 0.6%
  Percent hemolysis at 150 μM: 4 ± 0.6%
  Percent hemolysis at 250 μM: 6 ± 0.3%
  Percent hemolysis at 375 μM: 7 ± 0.3%
Tobacco leaves
  Size of the lesions in infiltrated tobacco leaves at 50 μM: 0.10 ± 0.12 cm
  Size of the lesions in infiltrated tobacco leaves at 150 μM: 0.37 ± 0.15 cm
  Size of the lesions in infiltrated tobacco leaves at 250 μM: 0.65 ± 0.11 cm

## melittin [reference compound]
Tobacco leaves
  Size of the lesions in infiltrated tobacco leaves at 50 μM: 0.70 cm
  Size of the lesions in infiltrated tobacco leaves at 250 μM: 2.17 cm

## KKVVFWVKFK-NH2 [KSL-W, reference compound]
Horse erythrocytes
  Percent hemolysis at 50 μM: 4 ± 1%
  Percent hemolysis at 150 μM: 5 ± 0.2%
  Percent hemolysis at 250 μM: 6 ± 1%
  Percent hemolysis at 375 μM: 20 ± 2%
Tobacco leaves
  Size of the lesions in infiltrated tobacco leaves at 50 μM: 0 ± 0 cm
  Size of the lesions in infiltrated tobacco leaves at 150 μM: 0.37 ± 0.97 cm
  Size of the lesions in infiltrated tobacco leaves at 250 μM: 0.62 ± 0.45 cm
